Data reported in US8871778B2, “Substituted pyrimidine compounds and their use as SYK inhibitors” (Genosco, priority 2012, dated 2014).

Columns and labels:
[1] = tested on: CIA mouse model (DBA/1J mice); test: Collagen-induced arthritis (CIA) mouse model, macroscopic scoring of paws; assay type: in vivo; settings: for CIA index (arthritic score of test group / vehicle group x 100): 30 mg/kg/day oral gavage once daily, DBA/1J mice; for Inhibition in arthritis phenotype indicated by CIA compared with R788 (in words): mouse, in vivo
Method: CIA mouse model was induced in DBA/1J mice (Japan Charles River Breeding Laboratories, Kanagawa, Japan) with 5 to 6 weeks of age. Animals were maintained at a temperature of 20±5° C. and a relative humidity of 40˜60%.
Bovine type II collagen (CII, 2 mg/ml dissolved in 0.05 M acetic acid, Chondrex, Redmond, Wash.) was emulsified in equal volumes of Freund's complete adjuvant (4 mg/ml of Mycobacterium tuberculosis strain H37Ra; Chondrex, Redmond, Wash.). On day 0, mice were immunized intradermally at the base of the tail with 100 μg bovine type II collagen emulsified in Freund's complete adjuvant. On day 21, all mice were boosted with an intraperitoneal injection of 100 μg type II collagen.
All the test substances were administered once daily at 30 mg/kg/day by oral gavage for 3 weeks.
The gradual onset of arthritis usually starts approximately 3 weeks after initial immunization. The progression of CIA was evaluated by the macroscopic scoring of paws at intervals of 3 days. The edema and swelling of each paw was scored visually as was described previously, using a scale of 0-4, where 0=no visible abnormalities, 1=mild redness or swelling of the wrist or up to three inflamed digits, 2=more than three inflamed digits or moderate redness and swelling of the ankle or wrist, 3=severe ankle and wrist inflammation, 4=extensive ankle and wrist inflammation including all digits.
Arthritis was considered to be present if the score was >2. The blind scoring was performed by four independent observers. In this study, data was calculated by following equation.

THP-1 cells [2] = test: SYK-independent TNF-α release assay (lipopolysaccharide stimulation), ELISA; assay type: cell-based, human; settings: SYK-independent pathway; for IC50: LPS, 18 hours, read-out: TNF-α release inhibition, LPS stimulation (IC50 nM)
Method: For SYK-independent TNF-α release assay, THP-1 cells were seeded at 1×10^5 cells/100 μL/well into 96 well culture plate, and serially diluted compound solution was added following lipopolysaccharide stimulation. After an 18-hour incubation period at 37° C., supernatants were collected for the determination of the TNF-α level by enzyme-linked immunosorbent assay (ELISA), and the remaining cells were subjected to an MTT (yellow tetrazolium salt) assay to determine the cytotoxic effects of compound. The IC50 value of test compound was calculated at Gradpad Prism 5 unless otherwise specified.

full-length human SYK = full-length human SYK (Homo sapiens (Human), UniProt P43405); test: Inhibition of enzymatic SYK kinase activity (LANCE Ulight-TK peptide, Eu-antibody, 665 nm emission); assay type: biochemical; settings: ATP at Km (15 uM)
THP-1 cells [3] = test: SYK-dependent TNF-α release assay (IgG stimulation), ELISA; assay type: cell-based, human; settings: for IC50: human IgG-coated plate, 18 hours, SYK-dependent pathway, read-out: TNF-α release inhibition, IgG stimulation (IC50 nM)
Method: For SYK-dependent TNF-α release assay (i.e., via IgG stimulation), THP-1 cells derived from human monocytic cells were obtained from the American Type Culture Collection (ATCC, Manassas, Va.). This cell line was maintained with a Roswell Park Memorial Institute (RPMI) medium (GIBCO) containing 10% fetal bovine serum (FBS; GIBCO) and 0.05 mM solution of 2-mercaptoethanol. The THP-1 cells were seeded at 1×10^5 cells/100 μL/well into human IgG (10 ng/well, INVITROGEN)-coated 96 well culture plate, and serially diluted compound was then added. After an 18 hours of incubation period at 37° C., supernatants were collected for the determination of the TNF-α level by enzyme-linked immunosorbent assay (ELISA), and the remaining cells were subjected to an MTT (yellow tetrazolium salt) assay to determine the cytotoxic effects of the compound. The IC50 value of the test compound was calculated at Gradpad Prism 5 unless otherwise specified.

[4] = biological target: full-length human KDR (VEGFR2) (Homo sapiens (Human), UniProt P35968); test: Inhibition of enzymatic KDR kinase activity (LANCE Ulight-JAK1 peptide, Eu-antibody, 665 nm emission); assay type: biochemical; settings: ATP at Km (15 uM)
Chain of full-length human KDR (VEGFR2) (P35968 20-1356): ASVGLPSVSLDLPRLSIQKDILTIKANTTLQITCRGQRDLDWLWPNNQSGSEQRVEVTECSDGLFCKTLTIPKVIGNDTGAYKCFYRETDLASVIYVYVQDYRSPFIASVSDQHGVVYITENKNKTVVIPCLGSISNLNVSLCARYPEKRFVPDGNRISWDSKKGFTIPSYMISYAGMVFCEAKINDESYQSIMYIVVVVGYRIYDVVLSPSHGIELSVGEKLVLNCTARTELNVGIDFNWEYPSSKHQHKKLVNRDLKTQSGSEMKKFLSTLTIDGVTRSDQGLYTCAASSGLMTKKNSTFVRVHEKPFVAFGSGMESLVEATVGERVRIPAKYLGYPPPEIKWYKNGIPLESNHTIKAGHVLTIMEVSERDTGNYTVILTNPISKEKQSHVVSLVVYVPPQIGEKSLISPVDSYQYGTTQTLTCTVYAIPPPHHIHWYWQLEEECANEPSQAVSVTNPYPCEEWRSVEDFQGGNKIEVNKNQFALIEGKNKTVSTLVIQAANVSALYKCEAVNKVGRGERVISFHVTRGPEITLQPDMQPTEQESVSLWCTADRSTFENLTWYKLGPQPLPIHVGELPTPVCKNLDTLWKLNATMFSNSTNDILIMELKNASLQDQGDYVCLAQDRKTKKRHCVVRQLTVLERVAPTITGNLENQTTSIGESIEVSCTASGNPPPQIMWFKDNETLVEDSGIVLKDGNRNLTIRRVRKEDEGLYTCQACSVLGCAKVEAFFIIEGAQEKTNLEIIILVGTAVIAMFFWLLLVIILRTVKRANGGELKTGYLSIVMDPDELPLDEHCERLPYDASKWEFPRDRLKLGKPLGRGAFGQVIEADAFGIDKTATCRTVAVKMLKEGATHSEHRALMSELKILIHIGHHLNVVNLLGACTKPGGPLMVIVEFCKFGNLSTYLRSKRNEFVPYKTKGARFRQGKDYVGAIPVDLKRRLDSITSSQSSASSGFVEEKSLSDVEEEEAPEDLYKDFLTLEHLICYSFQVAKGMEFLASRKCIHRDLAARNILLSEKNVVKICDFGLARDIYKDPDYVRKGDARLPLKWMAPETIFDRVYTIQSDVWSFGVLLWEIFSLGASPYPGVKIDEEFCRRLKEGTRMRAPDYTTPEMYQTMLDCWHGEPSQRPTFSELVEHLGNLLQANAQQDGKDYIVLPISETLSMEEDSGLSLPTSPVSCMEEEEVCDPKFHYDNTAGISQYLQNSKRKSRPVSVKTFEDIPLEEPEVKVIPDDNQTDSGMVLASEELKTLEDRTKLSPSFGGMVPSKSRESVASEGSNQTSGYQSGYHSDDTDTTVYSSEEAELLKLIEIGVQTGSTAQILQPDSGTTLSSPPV

In the case of COc1cc(Nc2ncc(F)c(Nc3ccc4c(n3)N(COP(=O)(O)O)C(=O)C(C)(C)O4)n2)cc(OC)c1OC [Compound R788], the “CIA index (arthritic score of test group / vehicle group x 100)” value ([1]; day 6) is reported as 41.9 ± 7.5%, the “CIA index (arthritic score of test group / vehicle group x 100)” value ([1]; day 9) is reported as 49.6 ± 9.4% and the “CIA index (arthritic score of test group / vehicle group x 100)” value ([1]; day 12) is reported as 68.3 ± 8.6%. The “CIA index (arthritic score of test group / vehicle group x 100)” value ([1]; day 15) was 74.1 ± 7.1%, the “CIA index (arthritic score of test group / vehicle group x 100)” value ([1]; day 18) was 79.4 ± 10.7% and the “CIA index (arthritic score of test group / vehicle group x 100)” value ([1]; day 21) was 80.1 ± 6.7%.

Compound C[C@@H]1C[C@H]2[C@@H]3CCC4=CC(=O)C=C[C@]4(C)[C@@]3(F)[C@@H](O)C[C@]2(C)[C@@]1(O)C(=O)CO [Dexamethasone] has an IC50 (THP-1 cells [2]) of 431 nM.

With Cc1cn(-c2ccnc(Nc3ccc4c(ccn4C)c3)n2)cc1CN1CC(O)C1 [Compound 52, 1-((4-methyl-1-(2-(1-methyl-1H-indol-5-ylamino)pyrimidin-4-yl)-1H-pyrrol-3-yl)methyl)azetidin-3-ol] the IC50 (full-length human SYK) was 190 nM.

Cc1nn(-c2ccnc(Nc3ccc4c(c3)c(Cl)cn4C)n2)cc1CN1CC(O)C1 [Compound 144, 1-((1-(2-(3-Chloro-1-methyl-1H-indol-5-ylamino)pyrimidin-4-yl)-3-methyl-1H-pyrazol-4-yl)methyl)azetidin-3-ol] was tested, and the “Inhibition in SYK dependent TNF-α release assay compared with R406 (in words)” value (THP-1 cells [3]; IgG stimulated release) was “stronger inhibition than R406”, the IC50 (THP-1 cells [3]) was 13 nM and the IC50 (THP-1 cells [2]; Homo sapiens) was 1140 nM. For the same compound, the “Inhibition in LPS stimulated TNF-α production (in words)” value (THP-1 cells [2]) was “no inhibition” and the “Inhibition in arthritis phenotype indicated by CIA compared with R788 (in words)” value [1] was “stronger inhibition”.

Compound COc1cc(Nc2ncc(F)c(Nc3ccc4c(n3)NC(=O)C(C)(C)O4)n2)cc(OC)c1OC [Compound R406, reference compound] has an IC50 (THP-1 cells [3]) of 171 nM.

Cc1nn(-c2ccnc(Nc3ccc4c(cnn4C)c3)n2)cc1CN1CC(O)C1 [Compound 160, 1-((3-Methyl-1-(2-(1-methyl-1H-indazol-5-ylamino)pyrimidin-4-yl)-1H-pyrazol-4-yl)methyl)azetidin-3-ol] was tested, and the IC50 (THP-1 cells [3]) was 91 nM and the IC50 (THP-1 cells [2]; Homo sapiens) was 934 nM.

In the case of Cc1nn(-c2ccnc(Nc3ccc4c(c3)c(C(=O)C(F)(F)F)cn4C)n2)cc1CN1CC(O)C1 [Compound 151, 2,2,2-Trifluoro-1-(5-(4-(4-((3-hydroxyazetidin-1-yl)methyl)-3-methyl-1H-pyrazol-1-yl)pyrimidin-2-ylamino)-1-methyl-1H-indol-3-yl)ethanone], the IC50 (THP-1 cells [3]) is reported as 20 nM and the IC50 (THP-1 cells [2]; Homo sapiens) is reported as > 1000 nM.

For Cc1nn(-c2ccnc(Nc3ccc4c(c3)c(Cl)c(C)n4C)n2)cc1CN1CC(O)C1 [Compound 141, 1-((1-(2-(3-chloro-1,2-dimethyl-1H-indol-5-ylamino)pyrimidin-4-yl)-3-methyl-1H-pyrazol-4-yl)methyl)azetidin-3-ol], the IC50 [4] was 192 nM and the “Inhibition in arthritis phenotype indicated by CIA compared with R788 (in words)” value [1] was “stronger inhibition”.

In the case of Cc1nn(-c2ccnc(Nc3ccc4c(c3)c(Cl)c(C)n4C)n2)cc1CN1CC[C@@H](O)C1 [Compound 189, (R)-1-((1-(2-(3-Chloro-1,2-dimethyl-1H-indol-5-ylamino)pyrimidin-4-yl)-3-methyl-1H-pyrazol-4-yl)methyl)pyrrolidin-3-ol], the IC50 (THP-1 cells [3]) is reported as 42 nM and the IC50 (THP-1 cells [2]; Homo sapiens) is reported as 2800 nM.
